According to PMC2874645 (Aquatic toxicology (Amsterdam, Netherlands), 2010):

Target: T1, farnesoid X receptor alpha (Fxrα) (Oryzias latipes, UniProt H2M6M7)
T1 sequence (H2M6M7 201-485): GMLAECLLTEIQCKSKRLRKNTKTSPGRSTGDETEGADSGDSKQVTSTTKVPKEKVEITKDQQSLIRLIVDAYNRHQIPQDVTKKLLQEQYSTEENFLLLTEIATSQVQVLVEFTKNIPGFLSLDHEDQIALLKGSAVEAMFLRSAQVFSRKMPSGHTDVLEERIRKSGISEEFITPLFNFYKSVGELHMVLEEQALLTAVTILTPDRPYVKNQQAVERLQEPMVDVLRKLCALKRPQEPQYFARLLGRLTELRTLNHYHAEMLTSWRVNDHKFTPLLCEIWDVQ
T1 sequence (Q9UBK2 1-798 partner): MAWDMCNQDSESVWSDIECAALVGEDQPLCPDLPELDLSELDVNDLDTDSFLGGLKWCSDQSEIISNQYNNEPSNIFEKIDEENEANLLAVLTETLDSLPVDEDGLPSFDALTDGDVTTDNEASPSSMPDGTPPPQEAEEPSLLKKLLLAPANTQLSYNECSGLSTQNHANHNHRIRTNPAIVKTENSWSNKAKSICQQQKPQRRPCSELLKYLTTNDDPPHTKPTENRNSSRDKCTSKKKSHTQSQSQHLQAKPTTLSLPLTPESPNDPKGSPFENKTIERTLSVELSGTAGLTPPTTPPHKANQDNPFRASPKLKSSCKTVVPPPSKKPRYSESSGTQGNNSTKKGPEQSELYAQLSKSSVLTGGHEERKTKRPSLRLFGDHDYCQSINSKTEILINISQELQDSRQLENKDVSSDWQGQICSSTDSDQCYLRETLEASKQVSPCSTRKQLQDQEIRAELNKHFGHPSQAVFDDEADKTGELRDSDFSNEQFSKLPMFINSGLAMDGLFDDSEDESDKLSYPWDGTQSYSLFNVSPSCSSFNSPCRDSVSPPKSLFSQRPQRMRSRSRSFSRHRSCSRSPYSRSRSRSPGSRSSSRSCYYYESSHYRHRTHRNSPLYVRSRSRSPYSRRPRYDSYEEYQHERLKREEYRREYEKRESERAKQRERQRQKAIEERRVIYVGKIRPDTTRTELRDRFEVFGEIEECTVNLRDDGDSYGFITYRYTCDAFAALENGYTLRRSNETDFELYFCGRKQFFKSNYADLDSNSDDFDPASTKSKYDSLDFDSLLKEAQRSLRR
Assay: Gal4-LBD luciferase reporter in PLHC-1 cells at […]
Conditions: read-out: Gal4-LBD luciferase reporter in PLHC-1 cells at 100 μM

Compound	fold induction at 100 µM
C[C@H](CCC(=O)O)[C@H]1CC[C@H]2[C@@H]3CC[C@@H]4C[C@H](O)CC[C@]4(C)[C@H]3CC[C@]12C [lithocholic acid]	10.7
C[C@H](CCC(=O)NCCS(=O)(=O)O)[C@H]1CC[C@H]2[C@@H]3CC[C@@H]4C[C@H](O)CC[C@]4(C)[C@H]3CC[C@]12C [taurine conjugate of LCA]	10.5
